Data on 19 compounds can be found in patent publication US20260070902A1, “SULFONYL DERIVATIVES AS CCR6 INHIBITORS” (Hoffmann-La Roche Inc., priority 2022, published 2026).

By IC50 is commonly meant the concentration that inhibits the measured activity by half. Low values mean greater potency in that assay, high ones weaker potency in that assay.

Molecules are shown by their SMILES.

Experiment [1] deals with T1, human CCR6 (Homo sapiens, UniProt P51684).
T1 sequence (P51684 1-374): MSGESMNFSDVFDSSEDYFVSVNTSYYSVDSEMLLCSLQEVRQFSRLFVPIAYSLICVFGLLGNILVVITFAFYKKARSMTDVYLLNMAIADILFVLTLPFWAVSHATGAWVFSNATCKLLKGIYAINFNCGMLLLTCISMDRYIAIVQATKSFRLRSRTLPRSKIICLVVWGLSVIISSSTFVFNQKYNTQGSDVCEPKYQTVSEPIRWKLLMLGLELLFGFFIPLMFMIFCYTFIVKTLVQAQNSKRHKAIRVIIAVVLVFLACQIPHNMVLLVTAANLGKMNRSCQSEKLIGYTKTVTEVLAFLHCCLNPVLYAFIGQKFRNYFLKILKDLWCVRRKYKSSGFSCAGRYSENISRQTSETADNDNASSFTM
The experiment in a line: CHO-K1 CCR6 chemotaxis assay towards CCL20. In kind it is cell-based. Particulars: relative -Log IC50; CHO-K1 cells overexpressing human CCR6; migration towards 100 ng/ml CCL20; 4 h. The source says:
CHO-K1 CCR6 Chemotaxis Assay Towards CCL20
Cells overexpressing human CCR6 were used in the chemotaxis assay (DiscoverX, cAMP Hunter™ CHO-K1 CCR6 Gi Cell Line). Growth medium of these cells consisted of DMEM/F12, non-essential Amino acids (1×NEAA, Gibco 11140050), 10% FBS and 1× pen/strep (Gibco 15140). For the chemotaxis assay, Corning Transwell plates were used with a pore size of 8 m (Corning 351164). Cells were harvested using trypsin and diluted to 4*10^6 cells/ml in chemotaxis medium (DMEM, 0.25% BSA, pen/strep). Compounds were four-fold serially diluted in DMSO. Further dilutions were made in chemotaxis medium. Cells were incubated with test compounds for 30 min at 37° C. prior to initiation of the assay (2*10^6 cells/ml). Final DMSO concentration in the assay was 0.2%. Wells of the Transwell plates were filled with 200 μl chemotaxis medium containing 100 ng/ml CCL20 (R&D systems 360-MP). 50 μl of the cell/compound suspension was added to the inserts of the Transwell plates (100,000 cells/insert). The Transwell plates were placed in an incubator at 37° C., 5% CO2 for 4 h. After 4 h, the number of migrated cells was quantified using CellTiter Glo (Promega). Percentage inhibition values were calculated based on the low and high signal obtained with 0.2% DMSO in chemotaxis medium without and with CCL20, respectively. The relative −Log IC50 was determined with GraphPad Prism 9 using a four-parameter dose-response model.

For experiment [2], the target named is T1, human CCR6. Description: Human CCR6-CRE reporter assay. In kind it is cell-based. Set-up: The second construct contained the open reading frame of human CCR6 in the pUNO1 backbone; host or cells: 293FT cells. Particulars: relative -Log IC50; 293FT cells transfected with human CCR6 and CRE-luciferase reporter; 6 μM Forskolin, 6 nM CCL20; 5 h. Put shortly: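 293FT cells transiently co-transfected with human CCR6 and a CRE-luc2P reporter, used 48 h later. Compounds incubated with cells in medium containing 6 μM Forskolin and 6 nM CCL20 (assay-medium levels), 0.1% DMSO final, 5 h at 37° C; luminescence read, relative −Log IC50 from four-parameter fit.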
On the technique in general: In a reporter assay the amount or activity of a reporter protein is the signal.

As for `O=S(=O)(c1ccc(-c2cn3ccnc3cn2)cc1)[C@H]1CC[C@H](Nc2ccc(S(F)(F)(F)(F)F)cc2)CC1` [Example 44, 4-(pentafluoro-λ^6-sulfanyl)-N-[trans-4-(4-{imidazo[1,2-a]pyrazin-6-yl}benzenesulfonyl)cyclohexyl]aniline], the IC50 at human CCR6 [1] and on human CCR6 [2] was 158 nM throughout.
Consider `N=S(=O)(c1ccc(-c2ccc3nnc(C(F)F)n3c2)cc1)[C@H]1CC[C@H](Nc2ccc(S(F)(F)(F)(F)F)cc2)CC1` (stereo partly drawn) [Example 169, {4-[3-(difluoromethyl)-[1,2,4]triazolo[4,3-a]pyridin-6-yl]phenyl}[trans-4-{[4-(pentafluoro-λ^6-sulfanyl)phenyl]amino}cyclohexyl](imino)-λ^6-sulfanone], for which the IC50 against human CCR6 [1] was 79.4 nM; against human CCR6 [2], 316 nM.
In the case of `N=S(=O)(c1ccc(-c2ccc3nccn3c2)cc1)N1CCC(Nc2ccc(S(F)(F)(F)(F)F)cc2)CC1` (centres unmarked) [Example 124, (4-{imidazo[1,2-a]pyridin-6-yl}phenyl)(4-{[4-(pentafluoro-λ^6-sulfanyl)phenyl]Amino}piperidin-1-yl)(imino)-λ^6-sulfanone], the figures for the half-inhibitory concentration (IC50) against human CCR6 [1] and against human CCR6 [2] were 126 nM and 200 nM, respectively.
As to `NC(=O)c1cccc(-c2ccc(S(=O)(=O)[C@H]3CC[C@H](Nc4ccc(S(F)(F)(F)(F)F)cc4)CC3)cc2)c1` [Example 23, 4′-{[trans-4-{[4-(pentafluoro-λ^6-sulfanyl)phenyl]Amino}cyclohexyl]sulfonyl}-[1,1′-biphenyl]-3-carboxamide], the IC50 against human CCR6 [1] and on human CCR6 [2] was 50.1 nM in each case.
As for `NC(=O)c1cc(-c2ccc(S(=O)(=O)[C@H]3CC[C@H](Nc4ccc(S(F)(F)(F)(F)F)cc4)CC3)cc2)co1` [Example 158, 4-(4-{[trans-4-{[4-(pentafluoro-λ^6-sulfanyl)phenyl]amino}cyclohexyl]sulfonyl}phenyl)furan-2-carboxamide], the figures for the IC50 on human CCR6 [1] and on human CCR6 [2] were 10 nM and 100 nM, respectively.
On the same counts, the results for `O=S(=O)(c1ccc(-c2cc(F)c3nccn3c2)cc1)[C@H]1CC[C@H](Nc2ccc(S(F)(F)(F)(F)F)cc2)CC1` [Example 152, 4-(pentafluoro-λ^6-sulfanyl)-N-[trans-4-(4-{8-fluoroimidazo[1,2-a]pyridin-6-yl}benzenesulfonyl)cyclohexyl]aniline] are 10 nM and 100 nM.
Consider `CN(C)C(=O)c1ccc(-c2ccc(S(=O)(=O)[C@H]3CC[C@H](Nc4ccc(S(F)(F)(F)(F)F)cc4)CC3)cc2)cc1` [Example 15, N,N-dimethyl-4′-{[trans-4-{[4-(pentafluoro-λ^6-sulfanyl)phenyl]Amino}cyclohexyl]sulfonyl}-[1,1′-biphenyl]-4-carboxamide], for which the half-inhibitory concentration (IC50) was 63.1 nM on human CCR6 [1] and 79.4 nM against human CCR6 [2].
Take `N=S(=O)(c1ccc(-c2ccc3nccn3c2)cc1)[C@H]1CC[C@H](Nc2ccc(S(F)(F)(F)(F)F)cc2)CC1` (single isomer, unassigned; (+)) [Example 128, (+)-(4-{imidazo[1,2-a]pyridin-6-yl}phenyl)[trans-4-{[4-(pentafluoro-λ^6-sulfanyl)phenyl]Amino}cyclohexyl](imino)-λ^6-sulfanone]: the half-maximal inhibitory concentration (IC50) against human CCR6 [1] is 251 nM; against human CCR6 [2], 126 nM.
For the compound `CC(C)c1cnc2ccc(-c3ccc(S(=O)(=O)[C@H]4CC[C@H](Nc5ccc(S(F)(F)(F)(F)F)cc5)CC4)cc3)cn12` [Example 63, 4-(pentafluoro-λ^6-sulfanyl)-N-[trans-4-{4-[3-(propan-2-yl)imidazo[1,2-a]pyridin-6-yl]benzenesulfonyl}cyclohexyl]aniline], the IC50 on human CCR6 [1] was 12.6 nM; at human CCR6 [2] it was 39.8 nM.
For `CNC(=O)c1ccc(-c2ccc(S(=O)(=O)[C@H]3CC[C@H](Nc4ccc(S(F)(F)(F)(F)F)cc4)CC3)cc2)cn1` [Example 22, N-methyl-5-(4-{[trans-4-{[4-(pentafluoro-λ^6-sulfanyl)phenyl]Amino}cyclohexyl]sulfonyl}phenyl)pyridine-2-carboxamide], the IC50 is 100 nM at human CCR6 [1] and 39.8 nM against human CCR6 [2].
Regarding `CNC(=O)c1cc(-c2ccc(S(=O)(=O)N3CCC(Nc4ccc(S(F)(F)(F)(F)F)cc4)CC3)cc2)ccc1F` [Example 138, 4-fluoro-N-methyl-4′-[(4-{[4-(pentafluoro-λ^6-sulfanyl)phenyl]amino}piperidin-1-yl)sulfonyl]-[1,1′-biphenyl]-3-carboxamide], the figures for the IC50 against human CCR6 [1] and against human CCR6 [2] were 20 nM and 63.1 nM, respectively.
Turning to `CNC(=O)c1cccc(-c2ccc(S(=O)(=O)[C@H]3CC[C@H](Nc4ccc(S(F)(F)(F)(F)F)cc4)CC3)cc2)c1` [Example 21, N-methyl-4′-{[trans-4-{[4-(pentafluoro-λ^6-sulfanyl)phenyl]Amino}cyclohexyl]sulfonyl}-[1,1′-biphenyl]-3-carboxamide], the IC50 is 12.6 nM against human CCR6 [1] and 31.6 nM on human CCR6 [2].
Taken in the same sequence, the figures for `CNC(=O)c1cc(-c2ccc(S(=O)(=O)[C@H]3CC[C@H](Nc4ccc(S(F)(F)(F)(F)F)cc4)CC3)cc2)ccn1` [Example 48, N-methyl-4-(4-{[trans-4-{[4-(pentafluoro-λ^6-sulfanyl)phenyl]Amino}cyclohexyl]sulfonyl}phenyl)pyridine-2-carboxamide] were 39.8 nM and 39.8 nM.
On the same counts, the results for `O=C1NCCc2cc(-c3ccc(S(=O)(=O)[C@H]4CC[C@H](Nc5ccc(S(F)(F)(F)(F)F)cc5)CC4)cc3)ccc21` [Example 61, 6-(4-{[trans-4-{[4-(pentafluoro-λ^6-sulfanyl)phenyl]Amino}cyclohexyl]sulfonyl}phenyl)-1,2,3,4-tetrahydroisoquinolin-1-one] are 31.6 nM and 126 nM.
Taken in the same sequence, the figures for `Cc1cnc2ccc(-c3ccc(S(=O)(=O)[C@H]4CC[C@H](Nc5ccc(S(F)(F)(F)(F)F)cc5)CC4)cc3)cn12` [Example 13, 4-(pentafluoro-λ^6-sulfanyl)-N-[trans-4-(4-{3-methylimidazo[1,2-a]pyridin-6-yl}benzenesulfonyl)cyclohexyl]aniline] were 5.01 nM and 79.4 nM.
With `N#Cc1c[nH]c2ccc(-c3ccc(S(=N)(=O)[C@H]4CC[C@H](Nc5ccc(S(F)(F)(F)(F)F)cc5)CC4)cc3)cc12` (single isomer, unassigned; (-)) [Example 127, (−)-5-(4-{[trans-4-{[4-(pentafluoro-λ^6-sulfanyl)phenyl]Amino}cyclohexyl]sulfonimidoyl}phenyl)-1H-indole-3-carbonitrile], the IC50 on human CCR6 [1] is 251 nM; against human CCR6 [2] it was 316 nM.
With `Cc1cn2cc(-c3ccc(S(=O)(=O)[C@H]4CC[C@H](Nc5ccc(S(F)(F)(F)(F)F)cc5)CC4)cc3)ncc2n1` [Example 43, 4-(pentafluoro-λ^6-sulfanyl)-N-[trans-4-(4-{2-methylimidazo[1,2-a]pyrazin-6-yl}benzenesulfonyl)cyclohexyl]aniline], the IC50 against human CCR6 [1] is 316 nM; against human CCR6 [2] it was 158 nM.
Consider `N#Cc1nnc2ccc(-c3ccc(S(=O)(=O)[C@H]4CC[C@H](Nc5ccc(S(F)(F)(F)(F)F)cc5)CC4)cc3)cn12` [Example 42, 6-(4-{[trans-4-{[4-(pentafluoro-λ^6-sulfanyl)phenyl]Amino}cyclohexyl]sulfonyl}phenyl)-[1,2,4]triazolo[4,3-a]pyridine-3-carbonitrile], for which the IC50 is 15.8 nM at human CCR6 [1] and 251 nM against human CCR6 [2].
On the same counts, the results for `CNC(=O)c1cccc(-c2ccc(S(=N)(=O)[C@H]3CC[C@H](Nc4ccc(S(F)(F)(F)(F)F)cc4)CC3)cc2)c1` (stereo partly drawn) [Example 98, N-methyl-4′-{[trans-4-{[4-(pentafluoro-λ^6-sulfanyl)phenyl]Amino}cyclohexyl]sulfonimidoyl}-[1,1′-biphenyl]-3-carboxamide] are 251 nM and 200 nM.
